Results taken from the OligoGym collection.
Where “and” joins values, the source holds several entries; their conditions need not be identical. Equal values may be shown once. After the bases stand the sugars from the 5' end (letter, count) and the backbone: PS all phosphorothioate, else s phosphorothioate and o phosphodiester by linkage. Methylation of C is not given here. e = 2'-O-(2-methoxyethyl) (MOE); k = constrained ethyl (cEt); d = 2'-deoxy (DNA)

Molecular target: MALAT1
Settings: ASO, A431, 0.005 µM

Row | Sequence | target mRNA inhibition
1 | TACTCTAATCACTGTC (sugars k3 d10 k3, PS) | 15%
2 | AAACGAATTCAGGGTG (sugars k3 d10 k3, PS) | 23%
3 | GAGGCAAGTCCTCATT (sugars k3 d10 k3, PS) | 11%
4 | TAAGCGAATGGCTTTG (sugars k3 d10 k3, PS) | 7%
5 | TATCTTAGTAACCTAT (sugars k3 d10 k3, PS) | 21%
6 | ACCCAAAAGCCCTCTC (sugars k3 d10 k3, PS) | 13%
7 | GATTAGAGAAGAATCC (sugars k3 d10 k3, PS) | 14%
8 | TGTAAAACATTGCCTA (sugars k3 d10 k3, PS) | -7%
9 | TCCCCAATGGAGGTAT (sugars k3 d10 k3, PS) | 9%
10 | AATGGCGGACTTTCTC (sugars k3 d10 k3, PS) | 0%
11 | CCCTGTTAAGACCATC (sugars k3 d10 k3, PS) | 21%
12 | ACAAGATTCATGAGTA (sugars k3 d10 k3, PS) | 27%
13 | ATAGTACTATAGCATC (sugars k3 d10 k3, PS) | 30%
14 | TCCAGCATAAAGCTGA (sugars k3 d10 k3, PS) | -9%
15 | AACCTGGGCTCCCGGA (sugars k3 d10 k3, PS) | 30%
16 | CCTGCGACTTGCTCCC (sugars k3 d10 k3, PS) | 20%
17 | TCTATAGTCTGAAGAA (sugars k3 d10 k3, PS) | 26%
18 | TGGAAGCTCCTTCTAT (sugars k3 d10 k3, PS) | -19%
19 | GTCAATAGTACTATAG (sugars k3 d10 k3, PS) | 58% and 42%
20 | CCTGAAGTCAAGACAA (sugars k3 d10 k3, PS) | 0%
21 | ACGGGTCATCAAACAC (sugars k3 d10 k3, PS) | 14%
22 | ATTTACTTGCCAACAG (sugars k3 d10 k3, PS) | 47%
23 | CCCAATGGAGGTATGA (sugars k3 d10 k3, PS) | 23%

Row | Sequence | target mRNA inhibition
24 | GTTACCAATAATTTCC (sugars k3 d10 k3, PS) | 71% and 50%
25 | GAATTCGATCACCTTC (sugars k3 d10 k3, PS) | -1%
26 | CCCTACTGAAGAGCAT (sugars k3 d10 k3, PS) | 13%
27 | TAATGGTTTTCTACAC (sugars k3 d10 k3, PS) | 40%
28 | AACTTATCTGCGGTTT (sugars k3 d10 k3, PS) | 6%
29 | GAACAGTACTGCATTT (sugars k3 d10 k3, PS) | 28%
30 | TGGTACACCCAGTGGC (sugars k3 d10 k3, PS) | 17%
31 | TGCCTTTAGGATTCTAGACA (sugars e5 d10 e5, PS) | 39% and 51%
32 | TGAGATGGACATTGCC (sugars k3 d10 k3, PS) | 74% and 92%
33 | AAGGCTTCAGTCCCCT (sugars k3 d10 k3, PS) | 14%
34 | AGGCTCGATGGAAAAA (sugars k3 d10 k3, PS) | 28%
35 | ATTCTTTTCTTCGCCT (sugars k3 d10 k3, PS) | 48%
36 | CTTCTGATAACGAAGA (sugars k3 d10 k3, PS) | -5%
37 | TATTTAGAGGGCCTCT (sugars k3 d10 k3, PS) | 34%
38 | ATGGCGGACTTTCTCC (sugars k3 d10 k3, PS) | 29%
39 | CCGACCTCACGGATTT (sugars k3 d10 k3, PS) | 39%
40 | CCCTTTACACCTCAGT (sugars k3 d10 k3, PS) | 25%
41 | CTACTCCAAGCATTGG (sugars k3 d10 k3, PS) | 27%
42 | GATTAAAGTGTGATAG (sugars k3 d10 k3, PS) | 16%
43 | TCCCCCCCGCCTCAGT (sugars k3 d10 k3, PS) | 16%
44 | CACACCCAGAAGTGTT (sugars k3 d10 k3, PS) | 13%
45 | GGATCATTAAGCCACT (sugars k3 d10 k3, PS) | 15%
46 | ATGGACATTGCCTCTT (sugars k3 d10 k3, PS) | 37%

Row | Sequence | target mRNA inhibition
47 | CCAGCATTACAGTTCT (sugars k3 d10 k3, PS) | 42%
48 | AAGATAGCAGCACAAC (sugars k3 d10 k3, PS) | 12%
49 | TACACCTCAGTACGAA (sugars k3 d10 k3, PS) | 28%
50 | GATATTTAAGAACTCC (sugars k3 d10 k3, PS) | 38%
51 | GATTTTTACCAACCAC (sugars k3 d10 k3, PS) | 42%
52 | AGGCGAGCTGAGGCTT (sugars k3 d10 k3, PS) | 19%
53 | GCACTGGTACACCCAG (sugars k3 d10 k3, PS) | -9%
54 | TTACACCAGTCCTTTT (sugars k3 d10 k3, PS) | 37%
55 | GCTCCTGACAAATTAT (sugars k3 d10 k3, PS) | 17%
56 | GTAATTACTCTTGATC (sugars k3 d10 k3, PS) | 47%
57 | AGGCTTTAAATGACGC (sugars k3 d10 k3, PS) | -11%
58 | GCTGAAATCTATTCAA (sugars k3 d10 k3, PS) | -159%
59 | GAAGAAGCTTCATCTC (sugars k3 d10 k3, PS) | 15%
60 | ACAACATATTGCCGAC (sugars k3 d10 k3, PS) | 10%
61 | TCATGGATTTCAAGGT (sugars k3 d10 k3, PS) | 51%
62 | TGAGAACTGCTCTAGT (sugars k3 d10 k3, PS) | 35%
63 | AGCCCCCCACGGCCCG (sugars k3 d10 k3, PS) | 27%
64 | CATCAAGGATGTATAT (sugars k3 d10 k3, PS) | -4%
65 | CAGACCTGAAGTCAAG (sugars k3 d10 k3, PS) | 14%
66 | CAAGTTACATGTTCCC (sugars k3 d10 k3, PS) | 42%
67 | CTACTGGCTGCATCGA (sugars k3 d10 k3, PS) | 54%
68 | TTAATGTAGTGTAACA (sugars k3 d10 k3, PS) | 30%
69 | TGATCCCAACTCATCT (sugars k3 d10 k3, PS) | 14%

Row | Sequence | target mRNA inhibition
70 | TCAGCCTTTATCACTC (sugars k3 d10 k3, PS) | 13%
71 | CGCAATTCTCCCTGCG (sugars k3 d10 k3, PS) | 23%
72 | TGGCGATGTGGCAGAG (sugars k3 d10 k3, PS) | 35%
73 | GCCTCCTCCGTGTGGT (sugars k3 d10 k3, PS) | -1%
74 | TCTCCCACCTGTCTAA (sugars k3 d10 k3, PS) | 23%
75 | CTCCATGGTTGTCCTA (sugars k3 d10 k3, PS) | 39%
76 | CACAACAATTTAGAGC (sugars k3 d10 k3, PS) | -17%
77 | TCACCAAATTGCACTC (sugars k3 d10 k3, PS) | 21%
78 | TGAACCCCGTCCTGGA (sugars k3 d10 k3, PS) | 3%
79 | TAAGGACAGCTAAGAT (sugars k3 d10 k3, PS) | 24%
80 | CCACTGGTGAATTCAA (sugars k3 d10 k3, PS) | 55%
81 | ATAAGGACAGCTAAGA (sugars k3 d10 k3, PS) | 8%
82 | TAAGTTGGTTTTAGTC (sugars k3 d10 k3, PS) | 78% and 92%
83 | CCACCAATCCCAACCG (sugars k3 d10 k3, PS) | 26%
84 | TAAAGTAGACCAACTA (sugars k3 d10 k3, PS) | 14%
85 | ATCCCATCACTGAAGC (sugars k3 d10 k3, PS) | 36%
86 | TACCTTAACATCTTGT (sugars k3 d10 k3, PS) | 14%
87 | AAGTTGGTAATTACTC (sugars k3 d10 k3, PS) | 22%
88 | AAGCCCTCTCAGCCAC (sugars k3 d10 k3, PS) | 38%
89 | GGAATGGCCAGCCTAT (sugars k3 d10 k3, PS) | 17%
90 | ACCCAGAAGTGTTTAC (sugars k3 d10 k3, PS) | 16%
91 | TAAATTGGTTCTGGTC (sugars k3 d10 k3, PS) | 49%
92 | TACTGAAGAGCATTGG (sugars k3 d10 k3, PS) | 71%

Row | Sequence | target mRNA inhibition
93 | CCAGTAGGCCAGACCA (sugars k3 d10 k3, PS) | 13%
94 | AGTTTACCACCTTTTG (sugars k3 d10 k3, PS) | 23%
95 | CAAATCCTGATCTGGT (sugars k3 d10 k3, PS) | 24% and 21%
96 | CCACGAACTGCTGCTT (sugars k3 d10 k3, PS) | 54%
97 | TTTATAGACGGAGAAC (sugars k3 d10 k3, PS) | -6%
98 | TAGGTATGAGCTTCAG (sugars k3 d10 k3, PS) | 4%
99 | GGCCAAGTCTGTTATG (sugars k3 d10 k3, PS) | -1%
100 | TATTCCAGGATTAATG (sugars k3 d10 k3, PS) | 29%
101 | AATTCACCAAGGAGCT (sugars k3 d10 k3, PS) | 35%
102 | CCTTTTCTAACATAGT (sugars k3 d10 k3, PS) | 23%
103 | TCTGCGGCCCCCCAGT (sugars k3 d10 k3, PS) | 25%
104 | CTATAGCATCTGTGGA (sugars k3 d10 k3, PS) | 29%
105 | GCATATGCAGATAATG (sugars k3 d10 k3, PS) | 36%
106 | TAATCTCCCACCTGTC (sugars k3 d10 k3, PS) | 7%
107 | TCTTCGGTTAAAAATA (sugars k3 d10 k3, PS) | 19%
108 | CACCTTCCGCCGCCTT (sugars k3 d10 k3, PS) | -25%
109 | GTGTTTACACTGCTCT (sugars k3 d10 k3, PS) | 6%
110 | CTTCAACATTTGGCCT (sugars k3 d10 k3, PS) | 18%
111 | AGCAGTAACATCTGAT (sugars k3 d10 k3, PS) | 41%
112 | CCGTAACAGGCCACTG (sugars k3 d10 k3, PS) | 30%
113 | TGCCCTTAGCTTTTTG (sugars k3 d10 k3, PS) | 56%
114 | TGCGCTGGCTGCCTCA (sugars k3 d10 k3, PS) | 25%
